Where two headings read alike, the source gives them in different places.
Tests used:
HCT116 MTAP null cells = assay: HCT116 MTAP null cell line proliferation (CellTiter-Glo cell viability, 6 days); type: cell-based; conditions: HCT116 MTAP null cells, 6 days of treatment, CellTiter-Glo cell viability, read-out: HCT-116 MTAP null IC50
Procedure: (§1) To assess selective anti-proliferative activity of compounds of the invention in cells that have loss expression of MTAP, an HCT-116 isogenic cell line pair was utilized where one cell line was engineered to genetically knockout both MTAP alleles. Cell viability was then assessed in both the parent HCT-116 cell line and the MTAP null cell line after 6 days of treatment with compounds of the present invention. Selective anti-proliferative activity in the MTAP null cell line indicates MTA-cooperative inhibition of PRMT5 and ability to inhibit growth of cancer cells that have loss of MTAP.
(§2) HCT116 MTAP null and WT cells were seeded in 96-well tissue culture plates in RPMI 1640 media+10% fetal bovine serum. Plates were incubated overnight at 37° C. and 5% CO2. Cells were then treated with an 8- or 9-point serial dilution of compound, using a top concentration of 1, or 10 μM, 1:3 serial dilution steps and, a DMSO-only control. Cells were incubated in the presence of drug for 6 days. Effects on cell viability were measured with the CellTiter-Glo® Luminescent Cell Viability Assay (Promega) per manufacturer's recommendation. Assay plates were read on an EnVision™ Multilabel Reader using the Ultra-Sensitive luminescence module. IC50 values were calculated with GraphPad Prism v 5.01 using symmetrical sigmoidal dose-response least squares fit with Hill slope fixed to −1 and top constrain to 100% or GeneData Screener using a 4-parameter logistic model to fit dose response curves.
(§3) Alternatively, compounds could be assayed with a 384 well plate format:
(§4) Compounds were pre-spotted into 384 well plates with a 22-point serial dilution of compound, using a top concentration of 10 or 50 μM, 1:2 serial dilution steps and, a DMSO-only control. HCT116 MTAP null and WT cells were then seeded as above and after 6 days effects on cell viability were measured with the CellTiter-Glo® Luminescent Cell Viability Assay (Promega). Assay plates were read as above and IC50 values were calculated with GeneData Screener using a 4-parameter logistic model to fit dose response curves. The reported IC50 represents the value where the curve transits 50% of control.

HCT116 WT cells = assay: HCT116 WT cell line proliferation (CellTiter-Glo cell viability, 6 days); type: cell-based; conditions: HCT116 WT (parent) cells, 6 days of treatment, CellTiter-Glo cell viability, read-out: HCT-116 WT IC50
Procedure: as §1, §2, §3, §4

Compound | IC50 (HCT116 MTAP null cells; HCT116-MTAP null, 144 h) | IC50 (HCT116 WT cells; Homo sapiens, HCT-116, 144 h) | IC50 (HCT116 MTAP null cells) | IC50 (HCT116 WT cells)
C[C@H]1COC[C@@H](c2ccc(C(F)(F)F)nc2)N1C(=O)c1cc2c3c(c(N)nc2cc1Cl)COC3 (racemic) [Example 302, (4-amino-7-chloro-1,3-dihydrofuro[3,4-c]quinolin-8-yl)((3R,5S)-3-methyl-5-(6-(trifluoromethyl)-3-pyridinyl)-4-morpholinyl)methanone and (4-amino-7-chloro-1,3-dihydrofuro[3,4-c]quinolin-8-yl)((3S,5R)-3-methyl-5-(6-(trifluoromethyl)-3-pyridinyl)-4-morpholinyl)methanone] | 11 nM | 167 nM |  | 
C[C@H]1COC[C@@H](c2ccc(C(F)(F)F)nc2)N1C(=O)c1ccc2nc(N)c3c(c2c1)COC3 (racemic) [Example 303, (4-amino-1,3-dihydrofuro[3,4-c]quinolin-8-yl)((3R,5S)-3-methyl-5-(6-(trifluoromethyl)-3-pyridinyl)-4-morpholinyl)methanone and (4-amino-1,3-dihydrofuro[3,4-c]quinolin-8-yl)((3S,5R)-3-methyl-5-(6-(trifluoromethyl)-3-pyridinyl)-4-morpholinyl)methanone] | 134 nM | 2860 nM |  | 
C[C@H]1OCc2c1c(N)nc1ccc(C(=O)N3[C@@H](C)COC[C@H]3c3ccc(C(F)(F)F)nc3)cc21 (racemic) [Example 305, ((3R)-4-amino-3-methyl-1,3-dihydrofuro[3,4-c]quinolin-8-yl)((3R,5S)-3-methyl-5-(6-(trifluoromethyl)-3-pyridinyl)-4-morpholinyl)methanone and ((3R)-4-amino-3-methyl-1,3-dihydrofuro[3,4-c]quinolin-8-yl)((3S,5R)-3-methyl-5-(6-(trifluoromethyl)-3-pyridinyl)-4-morpholinyl)methanone] | 49 nM | 611 nM |  | 
CC(C)Oc1ccc([C@@H]2COC[C@H](C)N2C(=O)c2cc3c4c(c(N)nc3cn2)COC4)cn1 (racemic) [Example 306, (4-amino-1,3-dihydrofuro[3,4-c][1,7]naphthyridin-8-yl)((3R,5S)-3-methyl-5-(6-(2-propanyloxy)-3-pyridinyl)-4-morpholinyl)methanone and (4-amino-1,3-dihydrofuro[3,4-c][1,7]naphthyridin-8-yl)((3S,5R)-3-methyl-5-(6-(2-propanyloxy)-3-pyridinyl)-4-morpholinyl)methanone] | 96 nM | 2130 nM |  | 
C[C@H]1OCc2c1c(N)nc1cnc(C(=O)N3[C@@H](C)COC[C@H]3c3ccc(C(F)(F)F)cn3)cc21 (racemic) [Example 307, ((3R)-4-amino-3-methyl-1,3-dihydrofuro[3,4-c][1,7]naphthyridin-8-yl)((3R,5S)-3-methyl-5-(5-(trifluoromethyl)-2-pyridinyl)-4-morpholinyl)methanone and ((3R)-4-amino-3-methyl-1,3-dihydrofuro[3,4-c][1,7]naphthyridin-8-yl)((3S,5R)-3-methyl-5-(5-(trifluoromethyl)-2-pyridinyl)-4-morpholinyl)methanone] | 22 nM | 492 nM |  | 
C[C@H]1OCc2c1c(N)nc1cnc(C(=O)N3[C@@H](C)COC[C@H]3c3ccc(C(F)(F)F)nc3)cc21 (racemic) [Example 308, ((3R)-4-amino-3-methyl-1,3-dihydrofuro[3,4-c][1,7]naphthyridin-8-yl)((3R,5S)-3-methyl-5-(6-(trifluoromethyl)-3-pyridinyl)-4-morpholinyl)methanone and ((3R)-4-amino-3-methyl-1,3-dihydrofuro[3,4-c][1,7]naphthyridin-8-yl)((3S,5R)-3-methyl-5-(6-(trifluoromethyl)-3-pyridinyl)-4-morpholinyl)methanone] | 46 nM | 1720 nM |  | 
C[C@H]1COC[C@@H](c2ccc(C(F)(F)F)nc2)N1C(=O)c1cc2c3c(c(N)nc2cc1F)COC3 (racemic) [Example 309, (4-amino-7-fluoro-1,3-dihydrofuro[3,4-c]quinolin-8-yl)((3R,5S)-3-methyl-5-(6-(trifluoromethyl)-3-pyridinyl)-4-morpholinyl)methanone and (4-amino-7-fluoro-1,3-dihydrofuro[3,4-c]quinolin-8-yl)((3S,5R)-3-methyl-5-(6-(trifluoromethyl)-3-pyridinyl)-4-morpholinyl)methanone] | 40 nM | 688 nM |  | 
C[C@H]1OCc2c1c(N)nc1cnc(C(=O)N3[C@@H](C)COC[C@H]3c3ccc(Cl)nc3)cc21 (racemic) [Example 310, ((3R)-4-amino-3-methyl-1,3-dihydrofuro[3,4-c][1,7]naphthyridin-8-yl)((3R,5S)-3-(6-chloro-3-pyridinyl)-5-methyl-4-morpholinyl)methanone and ((3R)-4-amino-3-methyl-1,3-dihydrofuro[3,4-c][1,7]naphthyridin-8-yl)((3S,5R)-3-(6-chloro-3-pyridinyl)-5-methyl-4-morpholinyl)methanone] | 66 nM | 3230 nM |  | 
C[C@H]1COC[C@@H](c2ccc(Cl)nc2)N1C(=O)c1cc2c3c(c(N)nc2cn1)COC3 (racemic) [Example 311, (4-amino-1,3-dihydrofuro[3,4-c][1,7]naphthyridin-8-yl)((3R,5S)-3-(6-chloro-3-pyridinyl)-5-methyl-4-morpholinyl)methanone and (4-amino-1,3-dihydrofuro[3,4-c][1,7]naphthyridin-8-yl)((3S,5R)-3-(6-chloro-3-pyridinyl)-5-methyl-4-morpholinyl)methanone] | 148 nM | 6740 nM |  | 

Next, values leading:

IC50 (HCT116 MTAP null cells; HCT116-MTAP null, 144 h) | IC50 (HCT116 WT cells; Homo sapiens, HCT-116, 144 h) | IC50 (HCT116 MTAP null cells) | IC50 (HCT116 WT cells) | Compound
71 nM | 3000 nM |  |  | C[C@H]1OCc2c1c(N)nc1ccc(C(=O)N3[C@@H](C)COC[C@H]3c3ccc(Cl)nc3)cc21 (racemic) [Example 312, ((3R)-4-amino-3-methyl-1,3-dihydrofuro[3,4-c]quinolin-8-yl)((3R,5S)-3-(6-chloro-3-pyridinyl)-5-methyl-4-morpholinyl)methanone and ((3R)-4-amino-3-methyl-1,3-dihydrofuro[3,4-c]quinolin-8-yl)((3S,5R)-3-(6-chloro-3-pyridinyl)-5-methyl-4-morpholinyl)methanone]
33 nM | 850 nM |  |  | C[C@H]1COC[C@@H](c2ccc(Cl)nc2)N1C(=O)c1cc2c3c(c(N)nc2cc1F)COC3 (racemic) [Example 313, (4-amino-7-fluoro-1,3-dihydrofuro[3,4-c]quinolin-8-yl)((3R,5S)-3-(6-chloro-3-pyridinyl)-5-methyl-4-morpholinyl)methanone and (4-amino-7-fluoro-1,3-dihydrofuro[3,4-c]quinolin-8-yl)((3S,5R)-3-(6-chloro-3-pyridinyl)-5-methyl-4-morpholinyl)methanone]
15 nM | 606 nM |  |  | C[C@H]1COC[C@@H](c2ccc(OC(F)F)nn2)N1C(=O)c1cc2c3c(c(N)nc2cc1F)COC3 (racemic) [Example 314, (4-amino-7-fluoro-1,3-dihydrofuro[3,4-c]quinolin-8-yl)((3R,5S)-3-(6-(difluoromethoxy)-3-pyridazinyl)-5-methyl-4-morpholinyl)methanone and (4-amino-7-fluoro-1,3-dihydrofuro[3,4-c]quinolin-8-yl)((3S,5R)-3-(6-(difluoromethoxy)-3-pyridazinyl)-5-methyl-4-morpholinyl)methanone]
 |  | 106 nM | 4750 nM | C[C@@H]1COC[C@H](c2ccc(OC(F)F)nn2)N1C(=O)c1ccc2nc(N)c3c(c2c1)COC3 (racemic) [Example 315, (4-amino-1,3-dihydrofuro[3,4-c]quinolin-8-yl)((3R,5S)-3-(6-(difluoromethoxy)-3-pyridazinyl)-5-methyl-4-morpholinyl)methanone and (4-amino-1,3-dihydrofuro[3,4-c]quinolin-8-yl)((3S,5R)-3-(6-(difluoromethoxy)-3-pyridazinyl)-5-methyl-4-morpholinyl)methanone]
82 nM | 2780 nM |  |  | C[C@H]1COC[C@@H](c2ccc(OC(F)F)nc2)N1C(=O)c1cc2c3c(c(N)nc2cn1)COC3 (racemic) [Example 318, (4-amino-1,3-dihydrofuro[3,4-c][1,7]naphthyridin-8-yl)((3R,5S)-3-(6-(difluoromethoxy)-3-pyridinyl)-5-methyl-4-morpholinyl)methanone and (4-amino-1,3-dihydrofuro[3,4-c][1,7]naphthyridin-8-yl)((3S,5R)-3-(6-(difluoromethoxy)-3-pyridinyl)-5-methyl-4-morpholinyl)methanone]

From patent US11845760B2, “PRMT5 inhibitors” (AMGEN INC., priority 2020, dated 2023)
